Where two headings read alike, the source gives them in different places.
Experiments:
NMDA receptor complex = biological target: T1, NMDA receptor complex (Rattus norvegicus, UniProt P35439); experiment: Modified glycine site-dependent [3H]MK-801 binding assay with 7-chlorokynurenic acid; settings: at 10^−6 M
T1 construct: Crude synaptic membranes were prepared using rat hippocampal tissue (male Sprague-Dawley rats); from tissue; host or cells: rat hippocampal crude synaptic membranes (male Sprague-Dawley)

learning [1] = settings: rats, IV doses up to 2 mg/kg; cited from earlier work
learning [2] = settings: rats, IV doses up to 2 mg/kg; cited from earlier work; remark: listed apart in the source
[3] = biological target: T2, NMDA receptor-ion channel complex; experiment: [3H]TCP binding assay on washed hippocampal membranes; parameters: species or system rat; settings: antagonist alone, no glutamate or glycine added; read-out: IC50, inhibition of [3H]TCP binding
T2 construct: other: antagonist alone, no glutamate or glycine added; other: combined addition, 50 μM of each
Procedure: (§1) Tissue Preparation. Crude synaptic membranes were prepared from rat Hippocampi or from rat forebrains (male Sprague-Dawley rats) and washed extensively to remove endogenous amino acids, as previously described by Ransom and Stec ((1988) Brain Res. 444, 25-32). […] Membranes were then pelleted by centrifugation at 48,000 g for 20 min. This step was repeated twice and the homogenate was stored at −70′ in the same buffer. Before each use, homogenates were thawed at room temperature, pelleted, and washed four additional times. […] The final washed membranes were resuspended at concentrations of 2-3 mg/ml in either 5 mM Tris-HCl buffer or 5 mM Tris-acetate buffer.
(§2) TCP binding assay. Measurements of specific [^3H]TCP binding were performed as described previously (Haring R., Kloog Y., Harshak-Felixbrodt N., and Sokolovsky M. (1987) Biochem. Biophys. Res. Commun. 142, 501-510). Final reaction of mixtures consisted of 50-100 μg of membrane protein in 200 μl of 5 mM Tris-HCl buffer and contained either [^3H]TCP, or [^3H]TCP and the appropriate concentration of NMDA-receptor ligands or MAbs. Reactions were initiated by the addition of the membranes to the reaction mixtures. Unless otherwise indicated, binding assays were performed under nonequilibrium conditions at 25° C. for 1 hr. Nonspecific binding was determined in parallel samples containing 100 μM unlabeled PCP. Binding reactions were terminated by filtration on Whatman GF/B glass filters that had been pretreated with 0.1% polyethyleneimine for 1 hr. The dissociation of [^3H]TCP from its membrane-binding site was measured after equilibrating the receptors with 20 nM [^3H]TCP for 120 min. The dissociation reaction was initiated by the addition of 100 μM unlabeled PCP in the presence and absence of NMDA-receptor ligands or MAb. Reactions were terminated immediately (zero time) and after incubation for the additional periods of time indicated.

[4] = biological target: NMDA receptor-ion channel complex; experiment: as above; parameters: species or system rat
Procedure: as §1, §2

[5] = biological target: T3, NMDA receptor-ion channel complex (Rattus norvegicus, UniProt P35439); experiment: as above
T3 construct: other: in the presence of 25 μM of B6B21; other: agonist alone
Procedure: as §1, §2

[6] = biological target: T4, glycine-binding site of the NMDA-receptor complex (Rattus norvegicus, UniProt P35439); experiment: [3H]glycine binding assay; settings: Scatchard analysis, no antibody
T4 construct: Crude synaptic membranes were prepared from rat Hippocampi or from rat forebrains (male Sprague-Dawley rats); from tissue; host or cells: rat hippocampal or forebrain crude synaptic membranes (male Sprague-Dawley), Triton X-100 treated
Procedure: as §1

T3 sequence (Q00959 23-1464, other chains not shown): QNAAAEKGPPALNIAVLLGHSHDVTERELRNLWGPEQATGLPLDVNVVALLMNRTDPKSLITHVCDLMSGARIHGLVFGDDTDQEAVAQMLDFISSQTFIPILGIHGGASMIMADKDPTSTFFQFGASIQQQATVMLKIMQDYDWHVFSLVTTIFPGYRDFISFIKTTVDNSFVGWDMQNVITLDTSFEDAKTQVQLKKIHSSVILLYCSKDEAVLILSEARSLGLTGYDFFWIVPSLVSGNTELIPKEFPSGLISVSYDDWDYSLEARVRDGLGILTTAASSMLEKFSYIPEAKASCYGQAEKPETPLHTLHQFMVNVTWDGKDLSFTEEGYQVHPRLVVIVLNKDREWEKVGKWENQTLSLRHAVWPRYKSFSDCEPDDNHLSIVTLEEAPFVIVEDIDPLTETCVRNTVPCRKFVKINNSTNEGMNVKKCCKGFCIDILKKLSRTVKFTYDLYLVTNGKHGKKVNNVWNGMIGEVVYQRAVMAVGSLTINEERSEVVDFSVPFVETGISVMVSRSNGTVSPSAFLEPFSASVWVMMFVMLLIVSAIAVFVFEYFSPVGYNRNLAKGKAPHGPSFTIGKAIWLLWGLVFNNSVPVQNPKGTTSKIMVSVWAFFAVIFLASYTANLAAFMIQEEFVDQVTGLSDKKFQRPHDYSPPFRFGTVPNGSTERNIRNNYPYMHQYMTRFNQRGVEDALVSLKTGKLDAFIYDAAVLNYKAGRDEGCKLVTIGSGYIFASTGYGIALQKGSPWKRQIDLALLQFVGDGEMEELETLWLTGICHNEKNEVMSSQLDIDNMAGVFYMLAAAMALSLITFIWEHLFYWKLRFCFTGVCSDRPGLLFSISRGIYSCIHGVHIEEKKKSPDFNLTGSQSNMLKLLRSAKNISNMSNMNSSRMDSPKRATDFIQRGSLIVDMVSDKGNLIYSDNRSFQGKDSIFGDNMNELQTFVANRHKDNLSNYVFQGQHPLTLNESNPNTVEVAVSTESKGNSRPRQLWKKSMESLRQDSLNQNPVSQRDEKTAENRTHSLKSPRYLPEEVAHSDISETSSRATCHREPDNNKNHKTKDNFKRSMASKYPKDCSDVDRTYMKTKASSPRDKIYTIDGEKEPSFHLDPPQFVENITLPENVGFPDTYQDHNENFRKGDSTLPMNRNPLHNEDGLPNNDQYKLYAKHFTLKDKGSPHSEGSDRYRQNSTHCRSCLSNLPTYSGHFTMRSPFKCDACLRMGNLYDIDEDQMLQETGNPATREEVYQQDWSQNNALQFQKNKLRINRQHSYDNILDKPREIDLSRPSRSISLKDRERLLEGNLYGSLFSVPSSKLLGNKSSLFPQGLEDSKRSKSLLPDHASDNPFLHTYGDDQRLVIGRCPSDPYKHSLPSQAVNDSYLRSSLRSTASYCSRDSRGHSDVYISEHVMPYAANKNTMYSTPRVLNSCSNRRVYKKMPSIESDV
T3 sequence (Q00960 27-1482, other chains not shown, further chain): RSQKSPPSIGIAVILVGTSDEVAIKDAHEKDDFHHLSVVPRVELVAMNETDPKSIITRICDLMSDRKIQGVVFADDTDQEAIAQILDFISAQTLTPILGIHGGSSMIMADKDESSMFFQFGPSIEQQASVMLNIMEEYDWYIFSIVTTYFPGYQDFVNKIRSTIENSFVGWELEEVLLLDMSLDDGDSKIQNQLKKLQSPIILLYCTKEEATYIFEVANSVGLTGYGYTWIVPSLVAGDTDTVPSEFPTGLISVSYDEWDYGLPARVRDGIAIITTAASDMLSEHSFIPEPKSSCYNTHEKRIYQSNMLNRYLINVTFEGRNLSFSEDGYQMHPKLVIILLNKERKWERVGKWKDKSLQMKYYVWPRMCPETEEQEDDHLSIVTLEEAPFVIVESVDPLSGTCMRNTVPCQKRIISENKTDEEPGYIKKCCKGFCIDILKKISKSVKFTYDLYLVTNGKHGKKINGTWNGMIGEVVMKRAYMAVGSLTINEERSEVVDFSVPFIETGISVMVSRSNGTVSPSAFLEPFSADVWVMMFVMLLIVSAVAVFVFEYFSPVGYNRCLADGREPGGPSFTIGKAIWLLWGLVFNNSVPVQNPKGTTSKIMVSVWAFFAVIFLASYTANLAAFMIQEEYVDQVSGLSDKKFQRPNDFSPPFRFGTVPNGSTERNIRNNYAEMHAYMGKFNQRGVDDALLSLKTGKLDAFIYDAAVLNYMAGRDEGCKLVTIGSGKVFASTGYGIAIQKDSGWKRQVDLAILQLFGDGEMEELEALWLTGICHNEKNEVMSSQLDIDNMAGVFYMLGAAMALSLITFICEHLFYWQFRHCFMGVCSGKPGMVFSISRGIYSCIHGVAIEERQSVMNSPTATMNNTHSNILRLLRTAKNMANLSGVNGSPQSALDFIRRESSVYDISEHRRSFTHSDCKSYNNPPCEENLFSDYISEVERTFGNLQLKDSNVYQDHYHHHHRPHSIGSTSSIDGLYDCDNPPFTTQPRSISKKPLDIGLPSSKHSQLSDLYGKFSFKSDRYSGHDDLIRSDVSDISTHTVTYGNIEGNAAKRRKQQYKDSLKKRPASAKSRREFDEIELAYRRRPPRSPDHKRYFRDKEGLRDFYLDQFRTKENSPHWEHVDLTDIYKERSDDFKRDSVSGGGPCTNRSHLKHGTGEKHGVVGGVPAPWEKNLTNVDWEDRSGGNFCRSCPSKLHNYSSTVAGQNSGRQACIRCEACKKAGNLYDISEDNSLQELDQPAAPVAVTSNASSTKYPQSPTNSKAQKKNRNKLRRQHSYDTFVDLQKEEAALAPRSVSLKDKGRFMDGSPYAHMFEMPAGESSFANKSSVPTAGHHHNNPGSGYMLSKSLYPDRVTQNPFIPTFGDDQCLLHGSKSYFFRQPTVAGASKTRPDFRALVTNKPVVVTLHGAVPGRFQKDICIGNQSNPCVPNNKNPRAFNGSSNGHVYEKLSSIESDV

threonine-proline-proline-threonine [NT-13]
[3H]MK-801 binding, % of control (NMDA receptor complex): 130%
learning in the trace eyeblink paradigm (learning [1]): statistically significant increase in learning
learning in the Morris Water Maze (learning [2]): statistically significant increase in learning

O=C(O)c1cc(O)c2ccc(Cl)cc2n1 [7-Cl KYNA, 7-chlorokynurenic acid]
IC50 [3]: 6 µM
IC50 ([4]; in the presence of B6B21 (40 μg/ml), read-out: IC50, inhibition of [3H]TCP binding): 60 µM

N[C@@H](CCC(=O)O)C(=O)O [glutamate]
concentration giving maximal stimulation of specific [3H]TCP binding [5]: > 10 µM
specific [3H]TCP binding ([5]; maximally stimulating concentration, non-equilibrium 1 h, 25° C., control 63): 132 fmol/mg of protein

NCC(=O)O [glycine]
Bmax of [3H]glycine binding [6]: 12.9 pmol/mg of protein
ability to abolish the inhibitory effect of D-AP5 on [3H]TCP binding ([4]; 50 μM glycine or 40 μg/ml B6B21): Neither glycine nor B6B21 could abolish
specific [3H]TCP binding ([4]; added to maximally stimulating glutamate): 310 fmol/mg of protein
potentiation of the glutamate effect on [3H]TCP binding ([4]; co-addition at concentrations giving maximal effects): potentiated the glutamate effect additively
specific [3H]TCP binding ([4]; in the absence of added glutamate, glycine 50 μM, B6B21 25 μM): 155 fmol/mg of protein

N[C@H](CCCP(=O)(O)O)C(=O)O [D-AP5, D-(−)-2-amino-5-phosphonovaleric acid]
IC50 [3]: 1.4 µM
IC50 ([5]; read-out: IC50, inhibition of [3H]TCP binding, in the presence of 50 μM glutamate): > 100 µM
